Like-named read-outs stand apart in the source and are kept apart here.
Columns and labels:
Assay type in all cases: cell-based
[1] = tested on: L1210 leukemia cells; test: Growth inhibition against L1210 leukemia cells in vitro; conditions: for IC50: Mus musculus
Experimental: In addition to the B16 melanoma cell assay summarized in Table I, compounds 1a-e, 5 and 7 were evaluated for growth inhibitory activity against L1210 leukemia cells. Stock solutions of the compounds were prepared in 95% ethanol, and serial dilutions of drug were prepared in ethanol such that 50 μl of drug solution added to 10 ml of cell suspension gave the desired final concentration. L1210 cells in exponential growth were suspended in Fischer's medium supplemented with 10% horse serum, 1% glutamine, and 1% antibiotic-antimycotic solution to give 10-ml volumes of cell suspension at a final density of 3-6×10^4 /ml. Appropriate volumes of the solutions of each compound were transferred to the cell suspensions, and incubation was continued for 2, 8, 24, or 48 hr. The cells were spun down, resuspended in fresh drug-free medium, and returned to the incubator, then counted with a Coulter Counter 48 hr after treatment with the compound.
^a Data represents an average of at least two experiments; L1210 cell
were treated with compound for 2, 8, 24 and 48 hr. The drugcontaining
medium was removed, cells were washed, complete medium was added, and the
cells were incubated for 48 hr total. Cell counts were obtained 48 hr
after the start of treatment.

[2] = tested on: B16 melanoma cells; test: Cytotoxicity against B16 melanoma cells (clonogenic assay); conditions: read-out: LC-99 (concentration of compound required to kill 99% of B16 melanoma cells)
Experimental: ^a Concentration of compound required to kill 99% of B16 melanoma
cells in a clonogenic assay. Cells were treated with the compound for 2
B16 cells in exponential growth (2-3×10^6 cells in 10 ml of serum-free MEM medium) were treated with drug for 2 hr. The cells were separated, washed, and resuspended in MEM medium supplemented with 10% fetal bovine serum. The cells were plated in 60-mm culture dishes at a density of 50-50,000 cells/plate (depending upon the drug concentration used initially) and then incubated for 8 days in a CO2 incubator at 37° C. The colonies were fixed and stained with 0.5% crystal violet in ethanol and counted.

[3] = tested on: L1210 leukemia cells; test: Reversal of L1210 growth inhibition by addition of thymidine; conditions: 5 μM thymidine
Source text: The relationship between potency and alkylating activity was confirmed by the synthesis and evaluation of the non-alkylating morpholino phosphoramidate 1e.

[4] = L1210, 48 h, read-out: IC50, treatment time 48 hr
[5] = L1210, read-out: IC50, treatment time 2 hr
[6] = L1210, read-out: IC50, treatment time 8 hr
[7] = L1210, read-out: IC50, treatment time 24 hr
[8] = Mus musculus, B16, 2 hr treatment

Row | SMILES | IC50 [1, 4] [nM] | IC50 [1, 5] [nM] | IC50 [1, 6] [nM] | IC50 [1, 7] [nM] | IC99 [2, 8] [µM] | further results
1 | CC1CC(C)(C)NC(CCOP(=O)(OC[C@H]2O[C@@H](n3ccc(=O)[nH]c3=O)C[C@@H]2O)N(C)CCBr)O1 (some centres unmarked) [Compound 5, 2'-Deoxy-5'-uridyl-[2-(4,4,-trimethyltetrahydro-1,3-oxazin-2-yl)ethyl]-N-methyl-N-(2-bromoethyl)phosphoramidate] | 425 | 20000 | 8200 | 1300 | 318 | –
2 | CC1CC(C)(C)NC(CCOP(=O)(OC[C@H]2O[C@@H](n3ccc(=O)[nH]c3=O)C[C@@H]2O)N2CCOCC2)O1 (some centres unmarked) [Compound 2, 2'-Deoxy-5'-uridyl-[2-(4,4,6-trimethyltetrahydro-1,3-oxazin-2-yl)ethyl]morpholinophosphoramidate] | – | – | – | – | 190 | –
3 | CC1CC(C)(C)NC(CCOP(=O)(OC[C@H]2O[C@@H](n3cc(F)c(=O)[nH]c3=O)C[C@@H]2O)N(C)CCI)O1 (some centres unmarked) [Compound 1d, 5-Fluoro-2'deoxy-5'-uridyl-[2-(4,4,6-trimethyltetrahydro-1,3-oxazin-2-yl)ethyl]-N-methyl-N-(2-iodoethyl)phosphoramidate] | 2 | 190 | 75 | 6 | 95 | –
4 | CC1CC(C)(C)NC(CCOP(=O)(OC[C@H]2O[C@@H](n3cc(F)c(=O)[nH]c3=O)C[C@@H]2O)N(C)CCBr)O1 (some centres unmarked) [Compound 1a, 5-FIuoro-2'-deoxy-5'-uridyl-[2-(4,4,6-trimethyltetrahydro-1,3-oxazin-2-yl)ethyl]-N-methyl-N-(2-bromoethyl)phosphoramidate] | 2.5 | 120 | 50 | 18 | 100 | inhibition of cell proliferation ([1]; 1a: 2 hr contact time, iodo and tosyl analogs: compared with 1a): potent inhibitor of cell proliferation; potency relative to 5-FU (more potent) ([1]; treatment times of 2, 8, 24, and 48 hr): 1-2 orders of magnitude; inhibitory activity on addition of thymidine [3]: completely blocked
5 | CC1CC(C)(C)NC(CCOP(=O)(OC[C@H]2O[C@@H](n3cc(F)c(=O)[nH]c3=O)C[C@@H]2O)N2CCOCC2)O1 (some centres unmarked) [Compound 1e, 5-Fluoro-2'-deoxy-5'-uridyl-[2-(4,4,6-trimethyltetrahydro-1,3-oxazin-2-yl)ethyl]-morpholinophosphoramidate] | 150 | 15000 | 5000 | 900 | 216 | potency compared with 5-FU ([1]; long treatment times): comparable in potency to 5-FU
6 | Cc1cn([C@H]2C[C@H](O)[C@@H](COP(=O)(OCCC3NC(C)(C)CC(C)O3)N(C)CCBr)O2)c(=O)[nH]c1=O (some centres unmarked) [Compound 7, Thymidyl-[2-(4,4,-trimethyltetrahydro-1,3-oxazin-2-yl)ethyl]-N-methyl-N-(2-bromoethyl)phosphoramidate] | 590 | 13000 | 10500 | 7000 | 165 | –
7 | Cc1cn([C@H]2C[C@H](O)[C@@H](COP(=O)(OCCC3NC(C)(C)CC(C)O3)N3CCOCC3)O2)c(=O)[nH]c1=O (some centres unmarked) [Compound 3, Thymidyl-[2-(4,4,6-trimethyltetrahydro-1,3-oxazin-2-yl)ethyl]morpholinophosphoramidate] | – | – | – | – | 152 | –
8 | Cc1ccc(S(=O)(=O)OCCN(C)P(=O)(OCCC2NC(C)(C)CC(C)O2)OC[C@H]2O[C@@H](n3cc(F)c(=O)[nH]c3=O)C[C@@H]2O)cc1 (some centres unmarked) [Compound 1b] | 2.5 | 160 | 60 | 19 | 156 | –
9 | O=c1[nH]cc(F)c(=O)[nH]1 [5-Fluorouracil, reference compound] | – | – | – | – | – | IC50 ([1]; L1210, 2 hr treatment, counted 48 hr after start of treatment, average of at least two experiments, read-out: IC50, treatment time 2 hr): 2200 nM; IC50 ([1]; L1210, 8 hr treatment, counted 48 hr after start of treatment, average of at least two experiments, read-out: IC50, treatment time 8 hr): 630 nM; IC50 ([1]; L1210, 24 hr treatment, counted 48 hr after start of treatment, average of at least two experiments, read-out: IC50, treatment time 24 hr): 220 nM; IC50 ([1]; L1210, 48 hr treatment, average of at least two experiments, read-out: IC50, treatment time 48 hr): 125 nM
10 | CC1CC(C)(C)NC(CCOP(=O)(OC[C@H]2O[C@@H](n3cc(F)c(=O)[nH]c3=O)C[C@@H]2O)N2CCCCC2)O1 (some centres unmarked) [Compound 4, 5-Fluoro-2'-deoxy-5'-uridyl-[2-(4,4,6-trimethyltetrahydro-1,3-oxazin-2-yl)ethyl]piperidinophosphoramidate] | – | – | – | – | 98 | –
11 | Cc1cn([C@H]2C[C@H](O)[C@@H](COP(=O)(OCCC3NC(C)(C)CC(C)O3)N(CCBr)CCBr)O2)c(=O)[nH]c1=O (some centres unmarked) [Compound 8, Thymidyl-[2-(4,4,6-trimethyltetrahydro-1,3-oxazin-2-yl)ethyl]bis-(2-bromoethyl)phosphoramidate] | – | – | – | – | – | IC99 ([2]; 2 hr treatment): 120 µM
12 | CC1CC(C)(C)NC(CCOP(=O)(OC[C@H]2O[C@@H](n3cc(F)c(=O)[nH]c3=O)C[C@@H]2O)N(C)CCCl)O1 (some centres unmarked) [Compound 1c] | 3.5 | 300 | 160 | 25 | 308 | –

— US5233031A, “Phosphoramidate analogs of 2'-deoxyuridine” (University of Rochester, priority 1991, dated 1993)
